Test results reported in patent US9409866B2, “Pyridine-2-amides useful as CB2 agonists” (Hoffmann-La Roche Inc., priority 2012, dated 2016).
Like-named read-outs stand apart in the source and are kept apart here.

How the values were obtained:
[1] = biological target: human CB2 receptors (Homo sapiens (Human), UniProt P34972); test: functional cAMP assay, CHO cells expressing human CB2; assay type: cell-based
Summary of the method: (§1)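 Compound exposure lasted 30 min at 30 °C in IBMX (1 mM)-containing Krebs Ringer bicarbonate buffer, applied to human CB1- or CB2-expressing CHO cells. Lysates were read by time-resolved FRET cAMP detection, converted via cAMP standard curve (10 μM–0.13 nM), and EC50 values calculated.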

[2] = biological target: human CB1 receptors (Homo sapiens (Human), UniProt P21554); test: functional cAMP assay, CHO cells expressing human CB1; assay type: cell-based
human CB1 receptors, sequence (P21554 whole entry): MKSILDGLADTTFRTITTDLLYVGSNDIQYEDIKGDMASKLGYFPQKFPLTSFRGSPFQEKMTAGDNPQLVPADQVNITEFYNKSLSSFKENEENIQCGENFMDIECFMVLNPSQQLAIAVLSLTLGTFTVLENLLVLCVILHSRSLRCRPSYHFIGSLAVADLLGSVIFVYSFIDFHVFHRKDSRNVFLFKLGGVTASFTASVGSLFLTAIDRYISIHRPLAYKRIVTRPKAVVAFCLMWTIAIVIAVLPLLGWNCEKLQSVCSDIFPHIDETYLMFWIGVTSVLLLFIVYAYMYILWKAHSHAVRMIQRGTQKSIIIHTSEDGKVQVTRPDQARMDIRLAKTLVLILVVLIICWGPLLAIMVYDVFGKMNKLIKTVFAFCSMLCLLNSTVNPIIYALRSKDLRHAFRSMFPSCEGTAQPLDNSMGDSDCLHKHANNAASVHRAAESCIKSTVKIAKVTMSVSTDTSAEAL
Summary of the method: as §1

[3] = Human CB1 EC50 (uM), functional cAMP assay, CHO cells expressing human CB1
[4] = functional cAMP assay, CHO cells expressing human CB1; read-out: Human CB1 EC50
[5] = read-out: Human CB1 EC50; functional cAMP assay, CHO cells expressing human CB1

human CB2 receptors, sequence (P34972 whole entry): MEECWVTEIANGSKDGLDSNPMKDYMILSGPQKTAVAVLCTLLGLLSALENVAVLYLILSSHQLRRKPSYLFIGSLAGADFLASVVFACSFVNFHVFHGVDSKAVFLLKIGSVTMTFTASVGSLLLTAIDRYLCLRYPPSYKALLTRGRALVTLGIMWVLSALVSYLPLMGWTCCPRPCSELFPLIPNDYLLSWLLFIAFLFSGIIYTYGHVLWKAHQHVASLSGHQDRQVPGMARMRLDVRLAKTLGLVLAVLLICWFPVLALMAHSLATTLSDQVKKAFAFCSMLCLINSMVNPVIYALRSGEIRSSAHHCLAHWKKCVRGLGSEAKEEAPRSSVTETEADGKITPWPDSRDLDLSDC

Row | SMILES | EC50 ([1]; Human CB2 EC50 (uM)) | EC50 [2, 3] | EC50 ([1]; read-out: Human CB2 EC50) | EC50 [2, 4] | EC50 [2, 5]
1 | CC(CC(N)=O)(NC(=O)c1cc(OCC(F)(F)F)c(C2(F)CCC2)cn1)C1CC1 (single isomer, unassigned) [Example 310, N-[4-amino-2-cyclopropyl-4-oxobutan-2-yl]-5-(1-fluorocyclobutyl)-4-(2,2,2-trifluoroethoxy)pyridine-2-carboxamide] | 0.0154 µM | 2.44 µM |  |  | 
2 | Cc1nc(C(C)(CC2CC2)NC(=O)c2cc(OCC(F)(F)F)c(N3CC(F)(F)C3)cn2)no1 (centres unmarked) [Example 90, 5-(3,3-Difluoro-azetidin-1-yl)-4-(2,2,2-trifluoro-ethoxy)-pyridine-2-carboxylic acid [2-cyclopropyl-1-methyl-1-(5-methyl-[1,2,4]oxadiazol-3-yl)-ethyl]-amide] |  |  | 0.0177 µM | > 10 µM | 
3 | Cc1nnc(C(C)(CC2CC2)NC(=O)c2cc(O[C@@H](C)C(F)(F)F)c(C3(F)COC3)cn2)o1 (stereo partly drawn) [Example 176, N-[1-cyclopropyl-2-(5-methyl-1,3,4-oxadiazol-2-yl)propan-2-yl]-5-(3-fluorooxetan-3-yl)-4-[(2S)-1,1,1-trifluoropropan-2-yl]oxypyridine-2-carboxamide] |  |  | 0.443 µM | > 10 µM | 
4 | Cc1nc(C(C)(CS(C)(=O)=O)NC(=O)c2cc(OC(C)CF)c(C3CC3)cn2)no1 (single isomer, unassigned) [Example 297, 5-cyclopropyl-4-(1-fluoropropan-2-yloxy)-N-(2-(5-methyl-1,2,4-oxadiazol-3-yl)-1-(methylsulfonyl)propan-2-yl)picolinamide] |  |  | 0.0032 µM |  | > 10 µM
5 | CCN(C(=O)c1cc(OCC(F)(F)F)c(C2CC2)cn1)C(C)(C)C [Example 107, 5-Cyclopropyl-4-(2,2,2-trifluoro-ethoxy)-pyridine-2-carboxylic acid tert-butyl-ethyl-amide] |  |  | 0.0822 µM | > 10 µM | 
6 | CC(C)(C)C(NC(=O)c1cc(OCC(F)(F)F)c(C2CC2)cn1)C(N)=O (centres unmarked) [Example 194, N-(1-amino-3,3-dimethyl-1-oxobutan-2-yl)-5-cyclopropyl-4-(2,2,2-trifluoroethoxy)pyridine-2-carboxamide] |  |  | 0.0151 µM | > 10 µM | 
7 | Cc1nc(C(C)(CC2CC2)NC(=O)c2cc(OCC(F)(F)F)c(Cl)cn2)no1 (centres unmarked) [Example 89, 5-Chloro-4-(2,2,2-trifluoro-ethoxy)-pyridine-2-carboxylic acid [2-cyclopropyl-1-methyl-1-(5-methyl-[1,2,4]oxadiazol-3-yl)-ethyl]-amide] |  |  | 0.0483 µM | > 10 µM | 
8 | Cc1nc(C(NC(=O)c2cc(OCC(F)(F)F)c(C3CC3)cn2)C(C)(C)C)no1 (single isomer, unassigned) [Example 212, 5-cyclopropyl-N-[2,2-dimethyl-1-(5-methyl-1,2,4-oxadiazol-3-yl)propyl]-4-(2,2,2-trifluoroethoxy)pyridine-2-carboxamide] | 0.005 µM |  |  |  | > 10 µM
9 | Cc1nc(C(C)(CC2CC2)NC(=O)c2cc(OC(C)CF)c(C3CC3)cn2)no1 (single isomer, unassigned) [Example 290, 5-cyclopropyl-N-(1-cyclopropyl-2-(5-methyl-1,2,4-oxadiazol-3-yl)propan-2-yl)-4-(1-fluoropropan-2-yloxy)picolinamide] |  |  | 0.0006 µM |  | > 10 µM
10 | Cc1nc(C(C)(CS(C)(=O)=O)NC(=O)c2cc(OC(C)CF)c(C3CC3)cn2)no1 (single isomer, unassigned) [Example 298, 5-cyclopropyl-4-(1-fluoropropan-2-yloxy)-N-(2-(5-methyl-1,2,4-oxadiazol-3-yl)-1-(methylsulfonyl)propan-2-yl)picolinamide] |  |  | 0.0579 µM |  | > 10 µM
11 | C[C@H](Oc1cc(C(=O)NC(C(N)=O)C(C)(C)C)ncc1C1CC1)C(F)(F)F (stereo partly drawn) [Example 240, N-(1-amino-3,3-dimethyl-1-oxobutan-2-yl)-5-cyclopropyl-4-[(2S)-1,1,1-trifluoropropan-2-yl]oxypyridine-2-carboxamide] |  |  | 0.0552 µM | > 10 µM | 
12 | Cc1nnc(C(NC(=O)c2cc(O[C@@H](C)C(F)(F)F)c(C3CC3)cn2)C2(C)COC2)o1 (stereo partly drawn) [Example 246, 5-cyclopropyl-N-[(5-methyl-1,3,4-oxadiazol-2-yl)-(3-methyloxetan-3-yl)methyl]-4-[(2S)-1,1,1-trifluoropropan-2-yl]oxypyridine-2-carboxamide] |  |  | 0.186 µM | > 10 µM | 
13 | C[C@H](Oc1cc(C(=O)NC2(CC(N)=O)CS(=O)(=O)C2)ncc1C1CC1)C(F)(F)F [Example 266, N-[3-(2-amino-2-oxoethyl)-1,1-dioxothietan-3-yl]-5-cyclopropyl-4-[(2S)-1,1,1-trifluoropropan-2-yl]oxypyridine-2-carboxamide] |  |  | 0.0016 µM | > 10 µM | 
14 | NC(=O)CC1(NC(=O)c2cc(OCC(F)(F)F)c(C3(F)CCC3)cn2)CS(=O)(=O)C1 [Example 286, N-[3-(2-amino-2-oxoethyl)-1,1-dioxothietan-3-yl]-5-(1-fluorocyclobutyl)-4-(2,2,2-trifluoroethoxy)pyridine-2-carboxamide] |  |  | 0.0459 µM | > 10 µM | 
15 | O=C(NC1(CO)CC1)c1cc(OCC2CC2)c(N2CC(F)(F)C2)cn1 [Example 53, 4-Cyclopropylmethoxy-5-(3,3-difluoro-azetidin-1-yl)-pyridine-2-carboxylic acid (1-hydroxymethyl-cyclopropyl)-amide] |  |  | 0.0726 µM | > 10 µM | 
16 | CC(C)[C@@](C)(CO)NC(=O)c1cc(OCC2CC2)c(Cl)cn1 [Example 10, 5-Chloro-4-cyclopropylmethoxy-pyridine-2-carboxylic acid ((S)-1-hydroxymethyl-1,2-dimethyl-propyl)-amide] |  |  | 0.0119 µM | > 10 µM | 
17 | Cc1nc(C(C)(CO)NC(=O)c2cc(OCC(F)(F)F)c(C3CC3)cn2)no1 (centres unmarked) [Example 113, 5-cyclopropyl-N-[1-hydroxy-2-(5-methyl-1,2,4-oxadiazol-3-yl)propan-2-yl]-4-(2,2,2-trifluoroethoxy)pyridine-2-carboxamide] |  |  | 0.263 µM | > 10 µM | 
18 | O=C(NCC1(O)CCCCC1)c1cc(OCC2CC2)c(Cl)cn1 [Example 5, 5-Chloro-4-cyclopropylmethoxy-pyridine-2-carboxylic acid (1-hydroxy-cyclohexylmethyl)-amide] |  |  | 0.107 µM | > 10 µM | 
19 | Cn1nnc(C(NC(=O)c2cc(OCC(F)(F)F)c(C3CC3)cn2)C(C)(C)C)n1 (single isomer, unassigned) [Example 210, 5-cyclopropyl-N-[2,2-dimethyl-1-(2-methyltetrazol-5-yl)propyl]-4-(2,2,2-trifluoroethoxy)pyridine-2-carboxamide] | 0.0042 µM |  |  |  | > 10 µM
20 | C[C@H](Oc1cc(C(=O)NC(C)(CC(N)=O)C2CC2)ncc1C1CC1)C(F)(F)F (stereo partly drawn) [Example 258, N-(4-amino-2-cyclopropyl-4-oxobutan-2-yl)-5-cyclopropyl-4-[(2S)-1,1,1-trifluoropropan-2-yl]oxypyridine-2-carboxamide] |  |  | 0.013 µM | > 10 µM | 
21 | CCCC(C)(CO)NC(=O)c1cc(OCC2CC2)c(Cl)cn1 (centres unmarked) [Example 33, 5-Chloro-4-cyclopropylmethoxy-pyridine-2-carboxylic acid (1-hydroxymethyl-1-methyl-butyl)-amide] |  |  | 0.0244 µM | > 10 µM | 
22 | C[C@H](Oc1cc(C(=O)NC(C(N)=O)C(C)(C)C)ncc1C1CC1)C(F)(F)F (stereo partly drawn) [Example 239, N-(1-amino-3,3-dimethyl-1-oxobutan-2-yl)-5-cyclopropyl-4-[(2S)-1,1,1-trifluoropropan-2-yl]oxypyridine-2-carboxamide] |  |  | 0.0015 µM | > 10 µM | 
23 | Cc1nc(C(C)(CN2CC(F)(F)C2)NC(=O)c2cc(OCC(F)(F)F)c(C3CC3)cn2)no1 (centres unmarked) [Example 128, 5-cyclopropyl-N-[1-(3,3-difluoroazetidin-1-yl)-2-(5-methyl-1,2,4-oxadiazol-3-yl)propan-2-yl]-4-(2,2,2-trifluoroethoxy)pyridine-2-carboxamide] |  |  | 0.0653 µM | > 10 µM | 
24 | Cc1nnc(C(NC(=O)c2cc(O[C@@H](C)C(F)(F)F)c(C3(F)COC3)cn2)C(C)(C)C)o1 (stereo partly drawn) [Example 175, N-[2,2-dimethyl-1-(5-methyl-1,3,4-oxadiazol-2-yl)propyl]-5-(3-fluorooxetan-3-yl)-4-[(2S)-1,1,1-trifluoropropan-2-yl]oxypyridine-2-carboxamide] |  |  | 0.0955 µM | > 10 µM | 
25 | NC(=O)CC1(NC(=O)c2cc(OCC(F)(F)F)c(C3CC3)cn2)CS(=O)(=O)C1 [Example 160, N-[3-(2-amino-2-oxoethyl)-1,1-dioxothietan-3-yl]-5-cyclopropyl-4-(2,2,2-trifluoroethoxy)pyridine-2-carboxamide] |  |  | 0.0118 µM | > 10 µM | 
26 | Cc1nc([C@@](C)(CC(C)(C)C)NC(=O)c2cc(OCC(F)(F)F)c(C3CC3)cn2)no1 (single isomer, unassigned) [Example 104, 5-Cyclopropyl-4-(2,2,2-trifluoro-ethoxy)-pyridine-2-carboxylic acid [1,3,3-trimethyl-1-(5-methyl-[1,2,4]oxadiazol-3-yl)-butyl]-amide] | 0.0298 µM | > 10 µM |  |  | 
27 | Cn1nnnc1C(NC(=O)c1cc(OCC(F)(F)F)c(C2CC2)cn1)C(C)(C)C (single isomer, unassigned) [Example 206, 5-cyclopropyl-N-[2,2-dimethyl-1-(1-methyltetrazol-5-yl)propyl]-4-(2,2,2-trifluoroethoxy)pyridine-2-carboxamide] | 0.0393 µM |  |  |  | > 10 µM
28 | CNC(=O)CC(C)(NC(=O)c1cc(O[C@@H](C)C(F)(F)F)c(C2CC2)cn1)C1CC1 (stereo partly drawn) [Example 250, 5-cyclopropyl-N-[2-cyclopropyl-4-(methylamino)-4-oxobutan-2-yl]-4-[(2S)-1,1,1-trifluoropropan-2-yl]oxypyridine-2-carboxamide] |  |  | 0.0332 µM | > 10 µM | 
